Data published in ChEMBL document CHEMBL3603734, “Design and biological evaluation of novel quinolone-based metronidazole derivatives as potent Cu(2+) mediated DNA-targeting antibacterial agents” (Bioorg Med Chem Lett, 2015).
Converted amounts (≈) assume the structure as drawn. The source made the active and inactive calls. No cut-off for these calls is given here.

Key:
[1] = test system: Escherichia coli; assay: Antibacterial activity against Escherichia coli JM109 after 24 hrs by microbroth dilution method; type: functional; conditions: JM109, 24 h
[2] = test system: Bacillus; assay: Antibacterial activity against Bacillus proteus ATCC 13315 after 24 hrs by microbroth dilution method; type: functional; conditions: ATCC 13315, 24 h
[3] = test system: Pseudomonas aeruginosa; assay: Antibacterial activity against Pseudomonas aeruginosa ATCC 27853 after 24 hrs by microbroth dilution method; type: functional; conditions: ATCC 27853, 24 h
[4] = test system: Salmonella enterica; assay: Antibacterial activity against Salmonella enterica ATCC 14028 after 24 hrs by microbroth dilution method; type: functional; conditions: ATCC 14028, 24 h
[5] = test system: Staphylococcus aureus; assay: Antibacterial activity against methicillin-resistant Staphylococcus aureus N315 after 24 hrs by microbroth dilution method; type: functional; conditions: N315, 24 h
[6] = test system: Staphylococcus aureus; assay: Antibacterial activity against Staphylococcus aureus ATCC 25923 after 24 hrs by microbroth dilution method; type: functional; conditions: ATCC 25923, 24 h
[7] = test system: Bacillus spizizenii; assay: Antibacterial activity against Bacillus subtilis ATCC 6633 after 24 hrs by microbroth dilution method; type: functional; conditions: ATCC 6633, 24 h
[8] = test system: Micrococcus luteus; assay: Antibacterial activity against Micrococcus luteus ATCC 4698 after 24 hrs by microbroth dilution method; type: functional; conditions: NCTC 2665, 24 h
[9] = test system: Cyberlindnera jadinii; assay: Antifungal activity against Candida utilis ATCC 9950 after 24 hrs by microbroth dilution method; type: functional; conditions: Williopsis jadinii, ATCC 9950, 24 h
[10] = test system: Aspergillus flavus; assay: Antifungal activity against Aspergillus flavus ATCC 204304 after 24 hrs by microbroth dilution method; type: functional; conditions: ATCC 204304, 24 h
[11] = test system: Saccharomyces cerevisiae; assay: Antifungal activity against Saccharomyces cerevisiae ATCC 9763 after 24 hrs by microbroth dilution method; type: functional; conditions: ATCC 9763, 24 h
[12] = test system: Candida albicans; assay: Antifungal activity against Candida albicans ATCC 10231 after 24 hrs by microbroth dilution method; type: functional; conditions: ATCC 10231, 24 h
[13] = test system: Pichia norvegensis; assay: Antifungal activity against Candida mycoderma ATCC 9888 after 24 hrs by microbroth dilution method; type: functional; conditions: ATCC 9888, 24 h
[14] = Cytotoxicity against HEK293 cells assessed as inhibition of cell proliferation at 10^-2 umol/L after 72 hrs by MTT assay relative to control; type: cell-based; conditions: human
[15] = Cytotoxicity against HEK293 cells assessed as inhibition of cell proliferation at 3 x 10^-2 umol/L after 72 hrs by MTT assay relative to control; type: cell-based; conditions: human
[16] = Cytotoxicity against HEK293 cells assessed as inhibition of cell proliferation at 10^-1 umol/L after 72 hrs by MTT assay relative to control; type: cell-based; conditions: human
[17] = Cytotoxicity against HEK293 cells assessed as inhibition of cell proliferation at 3 x 10^-1 umol/L after 72 hrs by MTT assay relative to control; type: cell-based; conditions: human
[18] = Cytotoxicity against HEK293 cells assessed as inhibition of cell proliferation at 1 umol/L after 72 hrs by MTT assay relative to control; type: cell-based; conditions: human
[19] = Cytotoxicity against HEK293 cells assessed as inhibition of cell proliferation at 3 umol/L after 72 hrs by MTT assay relative to control; type: cell-based; conditions: human
[20] = Cytotoxicity against HEK293 cells assessed as inhibition of cell proliferation at 10 umol/L after 72 hrs by MTT assay relative to control; type: cell-based; conditions: human
[21] = Cytotoxicity against HEK293 cells assessed as inhibition of cell proliferation at 30 umol/L after 72 hrs by MTT assay relative to control; type: cell-based; conditions: human
[22] = Cytotoxicity against HEK293 cells assessed as inhibition of cell proliferation at 10^2 umol/L after 72 hrs by MTT assay relative to control; type: cell-based; conditions: human
[23] = Cytotoxicity against HEK293 cells assessed as inhibition of cell proliferation at 3 x 10^2 umol/L after 72 hrs by MTT assay relative to control; type: cell-based; conditions: human
[24] = Cytotoxicity against MEF assessed as inhibition of cell proliferation at 10^-2 umol/L after 72 hrs by MTT assay relative to control; type: cell-based; conditions: mouse, MEF cells
[25] = Cytotoxicity against MEF assessed as inhibition of cell proliferation at 3 x 10^-2 umol/L after 72 hrs by MTT assay relative to control; type: cell-based; conditions: mouse, MEF cells
[26] = Cytotoxicity against MEF assessed as inhibition of cell proliferation at 10^-1 umol/L after 72 hrs by MTT assay relative to control; type: cell-based; conditions: mouse, MEF cells
[27] = Cytotoxicity against MEF assessed as inhibition of cell proliferation at 3 x 10^-1 umol/L after 72 hrs by MTT assay relative to control; type: cell-based; conditions: mouse, MEF cells
[28] = Cytotoxicity against MEF assessed as inhibition of cell proliferation at 1 umol/L after 72 hrs by MTT assay relative to control; type: cell-based; conditions: mouse, MEF cells
[29] = Cytotoxicity against MEF assessed as inhibition of cell proliferation at 3 umol/L after 72 hrs by MTT assay relative to control; type: cell-based; conditions: mouse, MEF cells
[30] = Cytotoxicity against MEF assessed as inhibition of cell proliferation at 10 umol/L after 72 hrs by MTT assay relative to control; type: cell-based; conditions: mouse, MEF cells
[31] = Cytotoxicity against MEF assessed as inhibition of cell proliferation at 30 umol/L after 72 hrs by MTT assay relative to control; type: cell-based; conditions: mouse, MEF cells
[32] = Cytotoxicity against MEF assessed as inhibition of cell proliferation at 10^2 umol/L after 72 hrs by MTT assay relative to control; type: cell-based; conditions: mouse, MEF cells
[33] = Cytotoxicity against MEF assessed as inhibition of cell proliferation at 3 x 10^2 umol/L after 72 hrs by MTT assay relative to control; type: cell-based; conditions: mouse, MEF cells
[34] = Cytotoxicity against mouse C2C12 cells assessed as inhibition of cell proliferation at 10^-2 umol/L after 72 hrs by MTT assay relative to control; type: cell-based
[35] = Cytotoxicity against mouse C2C12 cells assessed as inhibition of cell proliferation at 3 x 10^-2 umol/L after 72 hrs by MTT assay relative to control; type: cell-based
[36] = Cytotoxicity against mouse C2C12 cells assessed as inhibition of cell proliferation at 10^-1 umol/L after 72 hrs by MTT assay relative to control; type: cell-based
[37] = Cytotoxicity against mouse C2C12 cells assessed as inhibition of cell proliferation at 3 x 10^-1 umol/L after 72 hrs by MTT assay relative to control; type: cell-based
[38] = Cytotoxicity against mouse C2C12 cells assessed as inhibition of cell proliferation at 1 umol/L after 72 hrs by MTT assay relative to control; type: cell-based
[39] = Cytotoxicity against mouse C2C12 cells assessed as inhibition of cell proliferation at 3 umol/L after 72 hrs by MTT assay relative to control; type: cell-based
[40] = Cytotoxicity against mouse C2C12 cells assessed as inhibition of cell proliferation at 10 umol/L after 72 hrs by MTT assay relative to control; type: cell-based
[41] = Cytotoxicity against mouse C2C12 cells assessed as inhibition of cell proliferation at 30 umol/L after 72 hrs by MTT assay relative to control; type: cell-based
[42] = Cytotoxicity against mouse C2C12 cells assessed as inhibition of cell proliferation at 10^2 umol/L after 72 hrs by MTT assay relative to control; type: cell-based
[43] = Cytotoxicity against mouse C2C12 cells assessed as inhibition of cell proliferation at 3 x 10^2 umol/L after 72 hrs by MTT assay relative to control; type: cell-based
[44] = test system: HEK293; assay: Cytotoxicity against HEK293 cells assessed as inhibition of cell proliferation after 72 hrs by MTT assay; type: cell-based; conditions: Homo sapiens, HEK293, 72 h
[45] = test system: MEF; assay: Cytotoxicity against MEF assessed as inhibition of cell proliferation after 72 hrs by MTT assay; type: cell-based; conditions: Mus musculus
[46] = test system: C2C12; assay: Cytotoxicity against mouse C2C12 cells assessed as inhibition of cell proliferation after 72 hrs by MTT assay; type: cell-based; conditions: C2C12, 72 h
[47] = Ionization constant, pKa of the compound by UV spectroscopic analysis; type: physicochemical
[48] = test system: Pseudomonas aeruginosa; assay: Binding affinity to Pseudomonas aeruginosa DNA up to 1.4 x 10^-5 mol/L by UV-vis absorption spectra analysis
[49] = test system: Pseudomonas aeruginosa; assay: Binding affinity to Pseudomonas aeruginosa DNA by fluorescence spectroscopic analysis
[50] = test system: Pseudomonas aeruginosa; assay: Binding affinity to Cu2+ assessed as 2:1 compound-metal complex formation at 6 x 10^-6 mol/L by fluorescence spectroscopic analysis
[51] = test system: Pseudomonas aeruginosa; assay: Binding affinity to Pseudomonas aeruginosa DNA assessed as 1:1 compound-DNA complex formation at 6 x 10^-6 mol/L by fluorescence spectroscopic analysis in presence of Cu2+
[52] = test system: Pseudomonas aeruginosa; assay: Binding affinity to Pseudomonas aeruginosa DNA assessed as Stem-Volmer quenching constant by fluorescence spectroscopic analysis in presence of KI

With Cc1ncc([N+](=O)[O-])n1CC(O)CNC1CCN(c2c(F)cc3c(=O)c(C(=O)O)cn(C4CC4)c3c2Cl)C1 (configuration not stated) the MIC [1] was 2 µg/mL (≈ 3.64 µM), the MIC [2] was 0.25 µg/mL (≈ 0.455 µM) and the MIC [3] was 0.25 µg/mL (≈ 0.455 µM). For the same compound, the MIC [4] was 0.5 µg/mL (≈ 0.911 µM), the MIC [5] was 0.25 µg/mL (≈ 0.455 µM) and the MIC [6] was 0.5 µg/mL (≈ 0.911 µM). It also gave an MIC [7] of 0.25 µg/mL (≈ 0.455 µM), an MIC [8] of 0.25 µg/mL (≈ 0.455 µM) and an MIC [9] of 2 µg/mL (≈ 3.64 µM). For the same compound, the MIC [10] was 4 µg/mL (≈ 7.29 µM), the MIC [11] was 8 µg/mL (≈ 14.6 µM) and the MIC [12] was 16 µg/mL (≈ 29.1 µM). It also gave an MIC [13] of 8 µg/mL (≈ 14.6 µM), an inhibition at 72 h, 0.01 umol/L [14] of 0.1% and an inhibition at 72 h, 0.03 umol/L [15] of 1.5%. For the same compound, the inhibition at 72 h, 0.1 umol/L [16] was 0.9%, the inhibition at 72 h, 0.3 umol/L [17] was 4.1% and the inhibition at 72 h, 1 µM [18] was 5.3%. For the same compound, the inhibition at 72 h, 3 µM [19] was 13%, the inhibition at 72 h, 10 µM [20] was 21.8% and the inhibition at 72 h, 30 µM [21] was 25.7%. It also gave an inhibition at 72 h, 100 umol/L [22] of 35.8%, an inhibition at 72 h, 300 umol/L [23] of 57.9% and an inhibition at 72 h, 0.01 umol/L [24] of 0%. For the same compound, the inhibition at 72 h, 0.03 umol/L [25] was 0%, the inhibition at 72 h, 0.1 umol/L [26] was 0% and the inhibition at 72 h, 0.3 umol/L [27] was 0%. The inhibition at 72 h, 1 µM [28] was 0%, the inhibition at 72 h, 3 µM [29] was 8.4% and the inhibition at 72 h, 10 µM [30] was 22.7%. It also gave an inhibition at 72 h, 30 µM [31] of 39.9%, an inhibition at 72 h, 100 umol/L [32] of 51.7% and an inhibition at 72 h, 300 umol/L [33] of 58.1%. The inhibition at 72 h, 0.01 umol/L [34] was 0%, the inhibition at 72 h, 0.03 umol/L [35] was 0% and the inhibition at 72 h, 0.1 umol/L [36] was 0%. The inhibition at 72 h, 0.3 umol/L [37] was 0.3%, the inhibition at 72 h, 1 µM [38] was 0.7% and the inhibition at 72 h, 3 µM [39] was 4%. It also gave an inhibition at 72 h, 10 µM [40] of 10.3%, an inhibition at 72 h, 30 µM [41] of 22.4% and an inhibition at 72 h, 100 umol/L [42] of 58.2%. The inhibition at 72 h, 300 umol/L [43] was 65.5%, the IC50 [44] was 126 µg/mL (≈ 230 µM) and the IC50 [45] was 60 µg/mL (≈ 109 µM). The IC50 [46] was 57 µg/mL (≈ 104 µM), the pKa [47] was 6.48 and the Activity [48] was “Active”. The Activity [49] was “inactive”, the Activity [50] was “Active” and the Activity [51] was “Active”. For the same compound, the KSV [52] was 7.02 L/mol.
